According to PubChem BioAssay AID651642 (Sanford-Burnham Center for Chemical Genomics, 2012):

Columns and labels:
HL-1 = assay: cardiomyocyte survival under oxidative or metabolic stress – cell-based, panel, H9c2 and HL-1, H2O2, 2-deoxyglucose, ATP luminescence, SAR follow-up (AID 651642)
H9c2 = assay: as above
[1] = H9c2/HL-1 cardiomyocyte 2-deoxyglucose damage, mean of runs, with 2-deoxyglucose, mean IC50 across panel
[2] = H9c2/HL-1 cardiomyocyte 2-deoxyglucose damage, run 1, with 2-deoxyglucose
[3] = H9c2/HL-1 cardiomyocyte 2-deoxyglucose damage, run 2, with 2-deoxyglucose
[4] = H9c2/HL-1 cardiomyocyte 2-deoxyglucose damage, run 3, with 2-deoxyglucose
[5] = H9c2/HL-1 cardiomyocyte 2-deoxyglucose damage, run 4, with 2-deoxyglucose
[6] = H9c2/HL-1 cardiomyocyte H2O2 oxidative damage, run 1, with H2O2
[7] = H9c2/HL-1 cardiomyocyte H2O2 oxidative damage, run 2, with H2O2
[8] = H9c2/HL-1 cardiomyocyte H2O2 oxidative damage, run 3, with H2O2
[9] = H9c2/HL-1 cardiomyocyte H2O2 oxidative damage, run 4, with H2O2
[10] = H9c2/HL-1 cardiomyocyte H2O2 oxidative damage, mean of runs, with H2O2, mean IC50 across panel

SMILES | IC50 (HL-1; [1]) [µM] | IC50 (HL-1; [2]) [µM] | IC50 (HL-1; [3]) [µM] | IC50 (HL-1; [4]) [µM] | IC50 (HL-1; [5]) [µM] | IC50 (HL-1; [6]) [µM] | IC50 (HL-1; [7]) [µM] | IC50 (HL-1; [8]) [µM] | IC50 (HL-1; [9]) [µM] | IC50 (H9c2; [1]) [µM] | IC50 (H9c2; [2]) [µM] | IC50 (H9c2; [3]) [µM] | IC50 (H9c2; [4]) [µM] | IC50 (H9c2; [5]) [µM] | IC50 (H9c2; [10]) [µM] | IC50 (H9c2; [6]) [µM] | IC50 (H9c2; [7]) [µM] | IC50 (H9c2; [8]) [µM] | IC50 (H9c2; [9]) [µM] | IC50 (HL-1; [10]) [µM]
COc1cc(-c2cc(C(=O)Nc3cccc(C(C)=O)c3)c3cccc(Cl)c3n2)cc(OC)c1OC | > 79 | > 79 | > 79 | > 79 | > 79 | > 79 | > 79 | 2 | 2.5 | > 79 | > 79 | > 79 | > 79 | > 79 | > 79 | > 79 | > 79 | > 79 | > 79 | –
CCOC(=O)c1cccc(NC(=O)c2cc(-c3cc(OC)c(OC)c(OC)c3)nc3cc(Cl)ccc23)c1 | > 79 | > 79 | > 79 | > 79 | > 79 | > 79 | > 79 | 6.51 | 6.76 | > 79 | > 79 | > 79 | > 79 | > 79 | – | > 79 | 31.1 | > 79 | > 79 | –
COc1cc(-c2cc(C(=O)NCC(=O)Nc3cccc(C(C)=O)c3)c3cc(C)ccc3n2)cc(OC)c1OC | 23 | 13.6 | 14.8 | 29.8 | 33.9 | 34.9 | 44.3 | 25.5 | 43.1 | – | > 79 | > 79 | 19.9 | 24.4 | 10.1 | 12.5 | 13.5 | 5.91 | 8.51 | 36.9
COc1ccc2c(c1OC)C(=O)N1c3ccccc3C(=O)N(Cc3cccc(Cl)c3Cl)C21 (stereo not given) | 1.48 | 0.792 | 0.807 | 1.98 | 2.35 | > 79 | > 79 | > 79 | > 79 | 8.9 | 9.42 | 12.2 | 6.65 | 7.38 | – | 0.447 | 0.739 | > 79 | > 79 | > 79
COc1cc(-c2cc(C(=O)NCC(=O)Nc3cccc(C(C)=O)c3)c3ccccc3n2)cc(OC)c1OC | 6.18 | 2.77 | 3.2 | 8.97 | 9.78 | 4.49 | 9.07 | 4.55 | 7.16 | 8.19 | 9.43 | 9.75 | 6.11 | 7.46 | 1.61 | 1.67 | 2.65 | 0.99 | 1.13 | 6.32
COc1cc(-c2cc(C(=O)Nc3cccc(C(=O)O)c3)c3ccccc3n2)cc(OC)c1OC | > 79 | > 79 | > 79 | > 79 | > 79 | > 79 | > 79 | > 79 | > 79 | > 79 | > 79 | > 79 | > 79 | > 79 | > 79 | > 79 | > 79 | > 79 | > 79 | > 79
